The supplement of paper PMC10627819

How the values were obtained:
[1] = system: S. aureus Newman; assay: fitness (endpoint OD595 vs no drug) (fraction); higher = more growth
How it was run: (§1)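 In 384-well plates at 37 °C, cultures began at OD595 0.01 in 30 µl, with 55 µl used for S. pneumoniae. OD595 readings every 30 min for 14 h were corrected by the first reading. Fitness divides the stationary-phase transition optical density by the robust mean of no-drug control wells. The result is capped at 1.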

[2] = system: B. subtilis 168; assay: as above
How it was run: as §1
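Also: OD595 on entry to stationary phase over no-drug wells; at most 1.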

CC1(C)S[C@@H]2[C@H](NC(=O)Cc3ccccc3)C(=O)N2[C@H]1C(=O)O [Penicillin G] + CC1=C\[C@@H](O)CC(=O)Cc2nc(co2)C(=O)N2CCC=C2C(=O)O[C@H](C(C)C)[C@H](C)/C=C/C(=O)NC\C=C\1 [Virginiamycin M1]
fitness, [1]
Conditions	first compound 0.0195 µg/mL	first compound 0.039 µg/mL	first compound 0.078 µg/mL
partner 0.0625 µg/mL	0.896	0.929	0.917
partner 0.125 µg/mL	0.935	0.924	0.955
partner 0.25 µg/mL	0.914	0.913	0.925

fitness, [1], one replicate
Conditions	first compound 0.0195 µg/mL	first compound 0.039 µg/mL	first compound 0.078 µg/mL
partner 0.5 µg/mL	0.834	0.766	0.788
partner 1 µg/mL	0.916	0.877	0.856
partner 2 µg/mL	0.807	0.741	0.717

CO/N=C(\C(=O)N[C@@H]1C(=O)N2C(C(=O)O)=C(COC(N)=O)CS[C@H]12)c1ccco1 [Cefuroxime] + N[C@@H]1CONC1=O [Cycloserine D]
fitness, [2]
Conditions	partner 0.125 µg/mL	partner 0.25 µg/mL	partner 0.5 µg/mL
first compound 0.0975 µg/mL	0.677	0.63	0.648
first compound 0.195 µg/mL	0.396	0.41	0.372

fitness, one replicate
Conditions	first compound 0.04875 µg/mL	first compound 0.0975 µg/mL	first compound 0.195 µg/mL	first compound 0.39 µg/mL	first compound 0.78 µg/mL	first compound 1.562 µg/mL	first compound 3.125 µg/mL	first compound 6.25 µg/mL
[1], partner 0.375 µg/mL	0.926	0.887	0.935	–	–	–	–	–
[1], partner 0.75 µg/mL	0.965	0.822	0.908	–	–	–	–	–
[1], partner 1.5 µg/mL	0.871	0.861	0.976	–	–	–	–	–
[2], partner 0.125 µg/mL	–	–	–	0.337	0.303	0.361	0.287	0.201
[2], partner 0.25 µg/mL	–	–	–	0.404	0.319	0.305	0.22	0.173
[2], partner 0.5 µg/mL	–	–	–	0.306	0.284	0.228	0.204	0.111

CC1(C)S[C@@H]2[C@H](NC(=O)Cc3ccccc3)C(=O)N2[C@H]1C(=O)O [Penicillin G] + Cn1nnc(-c2ccc(-c3ccc(N4C[C@H](CO)OC4=O)cc3F)cn2)n1 [Tedizolid]
fitness, [1]
Conditions	first compound 0.0195 µg/mL	first compound 0.039 µg/mL	first compound 0.078 µg/mL
partner 0.0625 µg/mL	0.864	0.861	0.849
partner 0.125 µg/mL	0.803	–	0.719
partner 0.25 µg/mL	0.405	0.339	0.305
